Reference: article PMC5752149 (European journal of medicinal chemistry, 2017)

How the values were obtained:
EphA2 receptor [1] = target: T1, EphA2 receptor (Homo sapiens, UniProt P29317); test: EphA2 phosphorylation and internalization in MDA-MB-231 cells; format: cell-based
EphA2 receptor [2] = target: T1, EphA2 receptor; test: EphA2 phosphorylation in EphA2-overexpressing MDA-MB-231 cells; format: cell-based

T1 sequence (P29317 24-976): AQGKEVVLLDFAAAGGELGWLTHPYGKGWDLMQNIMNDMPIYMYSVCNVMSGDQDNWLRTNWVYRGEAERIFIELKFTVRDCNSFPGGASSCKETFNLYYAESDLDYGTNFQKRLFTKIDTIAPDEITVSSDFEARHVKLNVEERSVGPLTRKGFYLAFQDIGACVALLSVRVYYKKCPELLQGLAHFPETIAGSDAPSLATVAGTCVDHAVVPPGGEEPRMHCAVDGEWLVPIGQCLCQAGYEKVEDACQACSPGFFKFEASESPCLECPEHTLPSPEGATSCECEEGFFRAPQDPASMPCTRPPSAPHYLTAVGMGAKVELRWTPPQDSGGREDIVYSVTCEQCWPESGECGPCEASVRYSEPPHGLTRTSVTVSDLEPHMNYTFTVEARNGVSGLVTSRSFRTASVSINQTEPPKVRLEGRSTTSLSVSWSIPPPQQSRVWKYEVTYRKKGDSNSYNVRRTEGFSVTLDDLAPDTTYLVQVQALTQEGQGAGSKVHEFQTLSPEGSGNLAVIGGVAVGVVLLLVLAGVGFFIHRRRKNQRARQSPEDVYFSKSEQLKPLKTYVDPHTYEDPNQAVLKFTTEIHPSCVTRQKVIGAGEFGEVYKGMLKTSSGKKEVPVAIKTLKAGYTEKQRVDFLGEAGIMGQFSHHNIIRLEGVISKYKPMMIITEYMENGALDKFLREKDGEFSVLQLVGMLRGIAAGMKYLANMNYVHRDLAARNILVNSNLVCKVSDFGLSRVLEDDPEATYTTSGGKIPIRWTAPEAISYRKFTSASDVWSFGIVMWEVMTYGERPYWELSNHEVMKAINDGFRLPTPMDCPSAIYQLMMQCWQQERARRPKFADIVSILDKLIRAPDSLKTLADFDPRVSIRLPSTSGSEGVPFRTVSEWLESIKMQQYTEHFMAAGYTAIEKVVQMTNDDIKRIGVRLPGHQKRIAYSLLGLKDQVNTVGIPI

EphA2 phosphorylation in EphA2-overexpressing MDA-MB-231 cells; receptor interna (EphA2 receptor [2]) | SMILES | EphA2 phosphorylation and internalization in MDA-MB-231 cells (positive control, (EphA2 receptor [1])
– | COc1cc2nc(N3CCN(C(=O)C4COc5ccccc5O4)CC3)nc(N)c2cc1OC (centres unmarked) [Doxazosin, 2-[4-(2,3-Dihydro-1,4-benzodioxine-2-carbonyl)piperazin-1-yl]-6,7-dimethoxyquinazolin-4-amine] | ~ 50 μM
~ 0.4 μM | COc1cc2nc(N3CCN(C(=O)CCCCCCCCCCC(=O)N4CCN(c5nc(N)c6cc(OC)c(OC)cc6n5)CC4)CC3)nc(N)c2cc1OC [compound 27, 1,12-bis(4-(4-amino-6,7-dimethoxyquinazolin-2-yl)piperazin-1-yl)dodecane-1,12-dione] | –
